Data as given in US20210345614A1, “APPLICATION OF 7-CARBOXYBENZO[1,2,3]THIADIAZOLE AMIDES AS PLANT STIMULANTS” (ADAM MICKIEWICZ UNIVERSITY FOUNDATION, priority 2015, published 2021).
Values joined by “and” are separate entries in the source; they are usually repeats but may differ in a detail not shown here. Equal entries are not always repeated.

Tests used:
[1] = test system: Pseudomonas syringe pv. tomato; assay: BTHWA effect on the infectivity of bacteria, growth in Mueller-Hinton broth; format: cell-based; conditions: BTHWA 40 mg/L formulation, after 2 days
Method: (§1) Purified tobacco mosaic virus (TMV) at a concentration of approx. 3 μg/ml was mixed with N-methyl-N-methoxy-7-carboxybenzo[1,2,3]thiadiazole amide (BTHWA) formulation (concentration 40 mg/L) in a 1:1 volume ratio and incubated for 30 min at room temperature (treated leaves). The control was TMV incubated in water. Both virus suspensions were used to mechanically infect tobacco leaves cv. xanthi. Local necrotic spots (hypersensitivity, local infection) produced on the tobacco leaves were measured.
The procedure as described in Example 1 was followed, however, the bacterium Pseudomonas syringe pv. tomato was used. The suspensions formed were incubated in a Mueller-Hinton broth nutrition medium. After 2 days, the concentration of bacteria on the treated plates was compared to the control.

powdery mildew fungi = assay: BTHWA effect on the infectivity of fungi, growth in nutrition medium; format: cell-based; conditions: BTHWA 40 mg/L formulation, after 2 days
Method: as §1
The procedure as described in Example 1 was followed, however, a powdery mildew fungi was used, which was then incubated in a nutrition medium.

Brome Mosaic Virus BMV = assay: Protection of barley against Brome Mosaic Virus infection by watering; format: in vivo
Method: […] Control barley plants were treated with water only. One week after the second application of BTHWA, in each plant, one young developed leaf was sprinkled with carborundum to obtain small scratches, which helped in the virus infection.

[2] = test system: Pseudomonas syringe pv. tomato; assay: Protection of tobacco against bacterial infection of Pseudomonas syringe pv. tomato; format: in vivo, Nicotiana tabacum cv. xanthi
Method: Tobacco plants at the 3 developed leaves stage were watered (applied at the roots) twice in weekly intervals with BTHWA solution at a concentration of 20 mg/L. Control tobacco plants were irrigated with water only. One week after the second treatment, a Pseudomonas syringe pv. tomato bacterial suspension, at a concentration of 10^5 CFU/cm^3 was transferred to the leaf by using an insulin syringe (without a needle). The bacterial suspension was prepared from two-day syringe pv. tomato culture on a solid medium. Protection against biotic stress was evaluated based on the amount of bacterial growth in the leaves at the point of introduction followed by the formation of necrotic spots, and this was compared with the control. […] The procedure as described in Example 12 was followed, however, the effectiveness of BTHWA in protecting plants against biotic stress was tested against the bacterial cell concentration raised to approx. 10^6 […].

[3] = test system: Pseudomonas syringe pv. tomato; assay: Protection of tomato against bacterial infection of Pseudomonas syringe pv. tomato; format: in vivo, Tomato Lycopersicon esculentum Mill; conditions: sprayed twice, 20 mg/L
Method: Tomato plants in the phase of first pair of developed true leaves were watered twice with BTHWA at a concentration of 20 mg/L, at a weekly interval. Control tomato plants were treated with water only. One week after the second treatment Pseudomonas syringe pv. tomato bacterial suspension at a concentration of 10^5 CFU/cm^3 was introduced to the leaf using an insulin syringe (without a needle). Bacterial suspension was prepared from two-day Pseudomonas syringe pv. tomato culture on solid medium. Protection against biotic stress was evaluated based on the amount of bacterial growth in the leaves at the point of introduction followed by the formation of necrotic spots, and this compared with the control. […] The procedure as described in Example 16 was followed, however, the plants were sprayed. BTHWA at the concentration of 20 mg/L was applied twice by spraying.

Powdery mildew = assay: Protection of tomato against fungal infection of Powdery mildew; format: in vivo, Tomato Lycopersicon esculentum Mill
Method: Tomato plants in the phase of first pair of developed true leaves were watered twice with BTHWA at a concentration of 20 mg/L, at a weekly interval. Control tomato plants were treater with water only. One week after the second treatment with BTHWA, Powdery mildew fungi suspension was introduced to the leaf using an insulin syringe (without a needle). The suspension was prepared from a culture in solid medium solid. Protection against biotic stress was evaluated based on comparing the area of the leaves infected by the fungi. […] The procedure as described in Example 18 was followed, however, the plants were sprayed.

Radish seeds = assay: Germination of radish seeds; format: in vivo; conditions: seeds in 10 mg/L solution, after 2 days
Method: Radish seeds were placed in water-containing solution of BTHWA at a concentration of 10 mg/L or water only (control samples).

Tomato plants = assay: Protection against abiotic stress in tomato caused by herbicide (glyphosate); format: in vivo; conditions: watered twice 20 mg/L; glyphosate 0.005% aqueous solution; 10 days after herbicide application
Method: Tomato plants in the phase of first pair of developed true leaves were watered twice with BTHWA at concentration of 20 mg/L, at a weekly intervals. Control tomato plants were treated with water only.

[4] = test system: Tobacco plants (Nicotiana tabacum) var. xanthi; assay: Protection against abiotic stress in tobacco caused by herbicide (glyphosate); format: in vivo; conditions: watered twice 20 mg/l; glyphosate 0.005% aqueous solution; 10 days after herbicide application
Method: Tobacco plants (Nicotiana tabacum) var. […] stage of 3 developed leaves were watered twice with solution of BTHWA at concentration of 20 mg/l, at a weekly interval. Control […] plants were treated with water only.

Pyrenophora teres = assay: Field test on barley, fungal infection by Pyrenophora teres; format: in vivo, Hordeum vulgare (spring); conditions: Example 27: BTHWA 20 mg/L with Trend 90 EC, six foliar applications at 10 days intervals; harvested 13 days after last treatment
Method: The test was conducted on a variety of barley Hordeum vulgare (spring). As such, six applications of the active substance solution was made. The study was conducted on fields of about 25 m^2 in quadruplicate for each combination tested. […] (with the addition of commercial adjuvant) followed by treatment with common fungicide (tebukonazole in formulation containing 250 g of active substance to be applied per 1 ha) in reducing infection of fungi Pyrenophora teres in barley (Hordeum vulgare (spring)) was performed. […] Six applications of the active substance BTHWA solution were made. As a control, one application of fungicide was performed at the time as indicated on the product label. The study was conducted on fields of about 25 m^2 in quadruplicate for each combination tested. […] The fungicide was applied in an amount of 33% its recommended dose (83 g/ha). Six applications of the active substance BTHWA solution were made. As a control, one application of fungicide was performed at the time as indicated on the product label. The study was conducted on fields of about 25 m^2 in quadruplicate for each combination tested.

[5] = test system: tobacco mosaic virus (TMV); assay: TMV-tobacco cv. xanthi model, protection against biotic stress (necrotic spots); format: in vivo, Nicotiana tabacum cv. xanthi; conditions: sprayed twice at weekly intervals with 10 mg/L

CON(C)C(=O)c1cccc2nnsc12 [BTHWA, N-methyl-N-methoxy-7-carboxybenzo[1,2,3]thiadiazole amide]
growth differences between the control medium and the treated medium [1]: < 5%
differences in fungal growth on the treated plates and control (powdery mildew fungi): < 5%
biotic stress effects (disease symptoms) compared to control (Brome Mosaic Virus BMV; watered twice at weekly intervals with 70 ml of 20 mg/L, two weeks after BMV infection): showed no presence of biotic stress effects
prevention of biotic stress caused by BMV infection (Brome Mosaic Virus BMV; watered with 10 mg/L): 65%
protection against the effects of bacterial infection ([2]; 10 mg/L, applied by watering or spraying): completely protecting the treated plants from the effects of bacterial infection
protection against the effects of bacterial infection ([2]; sprayed twice at weekly intervals, 20 mg/L): fully protects the plants against the effects of bacterial infection
bacterial infection and formation of necrotic spots ([2]; watered twice at weekly intervals, 20 mg/L, bacteria 10^5 CFU/cm^3): these effects were not observed
local necrotic spots at elevated bacterial cell concentration ([2]; watering as in Example 12, bacteria approx. 10^6 CFU/cm): no local necrotic spots were observed
protection against the effects of bacterial infection [3]: fully protecting plants against the effects of bacterial infection
protection against the effects of fungal infection (Powdery mildew; 10 mg/L, watering and spraying): almost completely securing plants from the effects of fungal infection
protection against the effects of fungal infection (Powdery mildew; sprayed twice, 20 mg/L): fully protecting plants against the effects of fungal infection
fungal infection and formation of infected leaf areas (Powdery mildew; watered twice at a weekly interval, 20 mg/L): fungal infection and formation of infected areas were not observed
increase of the mass of the germ in comparison to control (Radish seeds): 5%
lesser negative effect of the herbicide compared to the control (Tomato plants): 30%
lesser negative effect of the herbicide compared to the control [4]: 26%
% of infection (Pyrenophora teres): 17% and 17.50%
protection against biotic stress caused by TMV infection [5]: protected the treated leaves against biotic stress
